Experimental data as given in article PMC10144566, “Pharmacokinetic Profile Evaluation of Novel Combretastatin Derivative, LASSBio-1920, as a Promising Colorectal Anticancer Agent” (Pharmaceutics, 2023).
Entries after “also recorded” stand apart in the source; their conditions may differ. Read-outs that look alike come from different tables or passages of the source.

What was measured:
[1] = tested on: PC-9 cells; assay: Annexin V/7-AAD apoptosis assay by flow cytometry, PC-9; type: cell-based, human; settings: 0.75 µM, 48 h, negative control 2.40 ± 0.17%
Procedure: The control group received the same amount of vehicle, of which the concentration was kept constant (below 0.5%). Cell treatments were completed in triplicate. CA4 (0.2 or 0.5 µM) was used as the positive control. Stock solutions of the compounds tested were dissolved in DMSO and diluted in the culture medium to obtain the desired concentrations.
Apoptosis assay: Apoptosis was analyzed using Annexin V/7-AAD staining followed by flow cytometry. Cells were collected and stained using an Annexin V-PE/7-AAD apoptosis detection kit. Annexin V binds to phosphatidylserine (PS) in apoptosis cells as PS translocates from the inner to the outer leaflet of the cytoplasmic membrane. 7-AAD is a fluorescent intercalator of DNA impermeable to the cell, providing a reliable indication of membrane integrity. Double staining distinguishes between viable, early apoptotic, necrotic, and late apoptotic cells. The resulting fluorescence of annexin V-PE at 583 nm and 7-AAD at 680 nm of every sample was analyzed by flow cytometry. The 7-AAD-positive and annexin V-negative cells were considered necrotic. Annexin V-positive cells (7-AAD-positive and 7-AAD-negative cells) were classified as apoptotic. 7-AAD-negative and annexin V-negative cells were deemed viable.

[2] = biological target: T1, EGFR-wt (Homo sapiens, UniProt P00533); assay: Inhibition of EGFR, LANCE TR-FRET assay; type: biochemical; settings: 1 and 10 µM (either concentration); data not shown
T1 construct: Eurofins
T1 sequence (P00533 25-1210): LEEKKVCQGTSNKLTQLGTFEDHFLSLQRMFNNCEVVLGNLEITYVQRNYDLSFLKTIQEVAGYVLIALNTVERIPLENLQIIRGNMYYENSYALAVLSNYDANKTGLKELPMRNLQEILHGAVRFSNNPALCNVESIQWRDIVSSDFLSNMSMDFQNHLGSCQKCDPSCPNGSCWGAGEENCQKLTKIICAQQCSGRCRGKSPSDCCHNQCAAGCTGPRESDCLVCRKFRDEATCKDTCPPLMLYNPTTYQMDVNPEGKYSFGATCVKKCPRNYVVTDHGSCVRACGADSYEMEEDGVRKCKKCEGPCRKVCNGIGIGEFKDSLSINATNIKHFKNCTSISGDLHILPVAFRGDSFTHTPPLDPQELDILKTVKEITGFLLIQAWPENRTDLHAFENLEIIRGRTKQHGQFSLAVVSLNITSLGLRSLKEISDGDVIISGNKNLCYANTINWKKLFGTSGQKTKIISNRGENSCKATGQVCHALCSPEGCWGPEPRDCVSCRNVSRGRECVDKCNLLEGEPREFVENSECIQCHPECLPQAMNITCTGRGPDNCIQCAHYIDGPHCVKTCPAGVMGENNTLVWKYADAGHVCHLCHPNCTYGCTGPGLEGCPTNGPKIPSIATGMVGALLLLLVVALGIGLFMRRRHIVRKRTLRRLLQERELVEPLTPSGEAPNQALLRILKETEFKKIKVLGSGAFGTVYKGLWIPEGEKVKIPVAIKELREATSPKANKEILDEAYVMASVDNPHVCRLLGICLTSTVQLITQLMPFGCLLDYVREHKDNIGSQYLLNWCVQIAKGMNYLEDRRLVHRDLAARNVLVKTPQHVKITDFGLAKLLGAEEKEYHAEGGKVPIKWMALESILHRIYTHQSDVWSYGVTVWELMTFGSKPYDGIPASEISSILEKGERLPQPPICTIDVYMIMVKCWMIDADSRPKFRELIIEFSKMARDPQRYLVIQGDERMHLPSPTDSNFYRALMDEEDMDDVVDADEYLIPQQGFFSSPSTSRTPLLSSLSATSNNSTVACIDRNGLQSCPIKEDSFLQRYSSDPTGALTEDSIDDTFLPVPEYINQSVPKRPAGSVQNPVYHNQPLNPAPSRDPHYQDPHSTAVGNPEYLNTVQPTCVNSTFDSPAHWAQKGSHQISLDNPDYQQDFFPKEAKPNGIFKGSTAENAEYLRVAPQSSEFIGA
Procedure: Inhibition of EGFR assay: The inhibition of EGFR activity was determined using the LANCE®TR-FRET (time-resolved fluorescence energy transfer) test according to the protocol described by Weber et al. (1984). The reference compound (PD153035) was tested simultaneously with LASSBio-1920 (1 and 10 µM). The LASSBio-1920 concentrations were determined based on IC50 values and the compound’s aqueous solubility. The experiment was carried out in agreement with Eurofins®’s Standard Operating Procedure.

[3] = Chemical stability in buffer (HPLC); type: physicochemical; settings: 0–240 min
[4] = Microsomal (metabolic) stability; type: in vitro ADME; settings: Wistar rat liver microsomes, with or without NADPH-generating system, 100 µM, up to 120 min
Procedure: Livers were obtained from male Wistar rats (250 and 300 g) from the Federal University of Ceara (UFC, Fortaleza, Brazil). The livers were maintained in an ice bath and washed with 3 volumes of 0.05 M Tris-HCl and 0.25 M sucrose, pH 7.4. They were then sliced and homogenized in a Potter–Elvehjem glass-Teflon homogenizer. The homogenates were centrifuged for 30 min at 900× g at 4 °C, and the supernatant fraction was centrifuged at 10,000× g for 1 h at 4 °C. The pellet was discarded, and the supernatant fraction was centrifuged at 100,000× g for 1 h at 4 °C. The microsomal fraction in the resulting pellet was recovered. The pellet was washed and resuspended twice in 0.05 M Tris-HCl, condensed into a pellet again by centrifugation for 1 h at 100,000× g at 4 °C and, finally, resuspended in the Tris-HCl buffer. Metabolic assays were carried out with frozen microsomes in Tris–HCl buffer, stored at –80 °C. […]
The final concentration of DMSO in the incubation mixture was 0.5%. […] The supernatant was analyzed by HPLC (acetonitrile/water 7:3 with 0.1% trifluoroacetic acid) using an internal standard (4-acetylbiphenyl—final concentration of 20 µM). […]

[5] = PAMPA-BBB permeability; type: in vitro ADME; settings: for Papp: PAMPA
Procedure: For this, two 96-well plates were placed one above the other, and between them, an artificial hydrophobic polyvinylidene fluoride (PVDF) membrane, which was impregnated with a lipid solution. The top plate works as the donor compartment and the bottom one as the receiver compartment.
Parallel artificial membrane permeation assay for the blood–brain barrier (PAMPA-BBB): It was performed according to the previously reported [26] method established by Lu and coworkers [27].

[6] = tested on: SF-295, glioblastoma; assay: MTT cytotoxicity assay, SF-295; settings: Homo sapiens, SF-295, 72 h, read-out: IC50 (95% CI) SF-295
Procedure: (§1) The cytotoxicity of the compounds was determined using the MTT assay [13]. Cells were seeded in 96-well plates as follows: 0.7 × 10^5 cells/well for adherent cancer cells, 0.3 × 10^5 cells/well for suspended cancer cells, and 0.2 × 10^5 cells/well for HPBMCs. […] The control group was treated with the vehicle. […] After incubation, the supernatant was decanted and replaced with fresh medium containing MTT (0.5 mg/mL).
(§2) Data were presented as mean ± standard error of the mean (SEM) from three independent experiments performed in triplicate, calculated using Prism 8.0 (GraphPad/Intuitive Software for Science, San Diego, CA, USA). The IC50 of the compounds was obtained using a non-linear regression of the cytotoxicity curves.

[7] = tested on: H-1975, non-small cell lung adenocarcinoma; assay: MTT cytotoxicity assay, H-1975; settings: Homo sapiens, NCI-H1975, 72 h, read-out: IC50 (95% CI) H-1975
Procedure: as §1, §2

enzymatic inhibition of EGFR-wt [2]: less than 20%
Papp ([5]; PAMPA-BBB classification: absorbed by the Central Nervous System, read-out: CNS Permeability): > 3.47 ×10⁻⁶ cm/s
Papp ([5]; PAMPA-BBB, mean, read-out: Pe (Experimental Mean)): 11.5 ×10⁻⁶ cm/s
Pe (Experimental Mean) ([5]; PAMPA-BBB, mean): 11.48 10–6 cm/s
Pe1 (Experimental) ([5]; PAMPA-BBB, replicate 1): 12.43 10–6 cm/s
Pe2 (Experimental) ([5]; PAMPA-BBB, replicate 2): 10.53 10–6 cm/s
SMILES: COc1cc(C(=O)N/N=C/c2cc3ccccc3s2)cc(OC)c1OC [LASSBio-1920, (E)-N′-(Benzo[b]thiophen-2-ylmethylene)-3,4,5-trimethoxybenzohydrazide]
apoptotic events PC-9 cells [1]: 15.49 ± 1.28%
chemical stability at pH 2 ([3]; HCl buffer pH 2, 37 °C): unstable at pH 2; also recorded: unstable in an acid medium (HCl buffer, pH 2)
chemical stability at pH 7.4 ([3]; phosphate buffer pH 7.4, 37 °C): stable at pH 7.4 at all time points; also recorded: stable in a practically neutral medium (phosphate buffer, pH 7.4)
metabolic stability in liver microsomal fraction [4]: significantly metabolized by the microsomal fraction only in the presence of an NADPH-generating system
IC50 [6]: 110 nM
IC50 [7]: 210 nM
